According to patent publication US8377895B2, “Cyclin-dependent protein kinases inhibitors of Scutellaria flavonoid organic amine derivatives, synthesis and use thereof” (priority 2008, dated 2013):
Values after ≈ are worked out from the molar mass of the structure shown. Like-named read-outs stand apart in the source and are kept apart here.

What was measured:
[1] = molecular target: Cdk1/Cyclin B (Homo sapiens, UniProt P06493); assay: Cdk1/Cyclin B inhibitory activity, Z'-LYTE Kinase Assay; format: biochemical; settings: for IC50: ATP 10 μM, 8 concentrations of 0.01-25 μM
[2] = system: Prostate (PC-3); assay: Anticancer activity in vitro (Table 3), PC-3; format: cell-based, human; settings: 48 h; for GI50 / IC50 / LC50: Homo sapiens
[3] = system: gastric (BGC-823); assay: Anticancer activity in vitro (Table 3), BGC-823; format: cell-based, human; settings: for GI50 / IC50 / CC50: Homo sapiens, BGC-823, 48 h; for BGC-823 TGI: 48 h; for CC50: read-out: BGC-823 LC50
[4] = system: MCF-7; assay: cells; settings: Homo sapiens; for CC50: MCF7, read-out: MCF-7 LC50; for GI50: MCF7, read-out: MCT-7 GI50
[5] = in vivo
[6] = Druggability screening: blood drug concentration and half-life; settings: equilibrium phase
[7] = Druggability screening: protein binding rate; format: in vitro ADME
[8] = Druggability screening: solubility in PBS (pH7.4); format: physicochemical; settings: pH 7.4, aqueous buffer
[9] = system: Breast (MCF-7); assay: Anticancer activity in vitro (Table 3), MCF-7; format: cell-based, human; settings: for MCF-7 TGI: 48 h; for GI50 / IC50 / CC50: Homo sapiens, MCF7, 48 h; for CC50: read-out: MCF-7 LC50
[10] = system: 58 kinds human tumor cell; assay: NCI growth inhibition of 58 kinds human tumor cell; format: cell-based; settings: 48 h, by NCI, read-out: growth inhibition rates in vitro 58 kinds human tumor cell
[11] = in vivo
[12] = system: CD4+T lymphocytes; assay: Differentiate growth inhibition of CD4+T lymphocytes; format: cell-based; settings: 48 h, induced by growth factor IL-3 and IL-5, read-out: differentiate growth inhibition rates of CD4+T lymphocytes
Text: These show a good prospect against AIDS, and are going to be prepared anti-AIDS drugs.

[13] = system: human cervical carcinoma HeLa cell line; assay: MTT cancer cell growth inhibition, HeLa; format: cell-based
[14] = system: human breast cancer MCF-7; assay: MTT cancer cell growth inhibition, MCF-7; format: cell-based
[15] = system: human gastric cancer BGC823 cell lines; assay: MTT cancer cell growth inhibition, BGC823; format: cell-based
[16] = system: human cervical carcinoma HeLa cell line; assay: Annexin V-PI double staining flow cytometry apoptosis, HeLa; format: cell-based; settings: concentration equals to IC50, 48 hours
[17] = system: human breast cancer MCF-7; assay: Annexin V-PI double staining flow cytometry apoptosis, MCF-7; format: cell-based; settings: MCF-7, concentration equals to IC50, 48 hours
[18] = system: human gastric cancer BGC823 cell lines; assay: Annexin V-PI double staining flow cytometry apoptosis, BGC823; format: cell-based; settings: BGC823, concentration equals to IC50, 48 hours
[19] = Distribution and plasma binding in rabbits (LC-DAD-MS); format: in vivo
Text: The major metabolic process relates to the structures is illustrated in the following scheme.

Sequence of Cdk1/Cyclin B (P06493 whole entry): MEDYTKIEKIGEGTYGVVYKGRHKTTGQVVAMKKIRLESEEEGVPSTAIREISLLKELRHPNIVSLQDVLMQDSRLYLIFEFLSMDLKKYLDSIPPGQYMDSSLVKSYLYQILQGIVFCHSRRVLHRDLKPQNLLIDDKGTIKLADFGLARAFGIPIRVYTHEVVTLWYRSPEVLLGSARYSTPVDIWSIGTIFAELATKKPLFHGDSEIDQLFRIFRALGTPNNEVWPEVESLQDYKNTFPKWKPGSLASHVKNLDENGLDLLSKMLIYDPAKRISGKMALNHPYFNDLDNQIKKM
Sequence of Cdk1/Cyclin B (P14635 whole entry partner): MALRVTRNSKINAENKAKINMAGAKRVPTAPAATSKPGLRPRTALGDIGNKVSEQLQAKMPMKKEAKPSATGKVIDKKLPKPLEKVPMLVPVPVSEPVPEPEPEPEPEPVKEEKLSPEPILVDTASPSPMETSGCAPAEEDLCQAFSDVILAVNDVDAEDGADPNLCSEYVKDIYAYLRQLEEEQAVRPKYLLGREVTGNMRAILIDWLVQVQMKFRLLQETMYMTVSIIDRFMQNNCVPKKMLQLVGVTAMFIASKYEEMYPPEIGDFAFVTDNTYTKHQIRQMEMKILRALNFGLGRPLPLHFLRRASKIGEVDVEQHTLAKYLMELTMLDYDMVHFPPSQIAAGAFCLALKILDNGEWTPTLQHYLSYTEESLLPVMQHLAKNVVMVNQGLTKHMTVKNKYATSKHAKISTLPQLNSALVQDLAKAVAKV

SMILES: COc1c(O)c(CN2CCN(C)CC2)c2oc(-c3ccccc3)cc(=O)c2c1O [6-OCH3— Methylpiperazine Baicalein]
- IC50 [1]: 0.88 µM
- PC-3 TGI [2]: 76.1 µM
- GI50 [2]: 11.2 µM
- IC50 [2]: 87.6 µM
- GI50 [3]: 26.2 µM
- IC50 [3]: 115 µM
- CC50 [4]: > 100 µM
- GI50 [4]: 26.1 µM

SMILES: O=c1cc(-c2ccccc2)oc2cc(O)c(O)c(O)c12 [Baicalein, reference compound]
- IC50 [1]: 2.08 µM
- half-life [5]: 5.26 h
- Blood drug concentration [6]: 0.026 µM

SMILES: O=C(O)[C@H]1O[C@@H](Oc2cc3oc(-c4ccccc4)cc(=O)c3c(O)c2O)[C@H](O)[C@@H](O)[C@@H]1O [Baicalin, reference compound]
- inhibition against Cdk1/Cyclin B (in words) [1]: slight inhibition
- IC50 [1]: 18.1 µM

SMILES: COc1c(O)c(CN(CCO)CCO)c(O)c2c(=O)cc(-c3ccccc3)oc12 [Diethanolamin Wogonin, 6-((bis(2-hydroxyethyl)amino)methyl)-5,7-dihydroxy-8-methoxy-2-phenyl-4H-chromen-4-one]
- IC50 [1]: 0.31 µM

SMILES: CN(C)Cc1c(O)c(O)c(O)c2c(=O)cc(-c3ccccc3)oc12 [Dimethylamine Baicalein]
- GI50 [4]: 12.3 µM

SMILES: COc1c(O)c(CN(C)C)c(O)c2c(=O)cc(-c3ccccc3)oc12 [Dimethylamine Wogonin, 6-((dimethylamino)methyl)-5,7-dihydroxy-8-methoxy-2-phenyl-4H-chromen-4-one]
- IC50 [1]: 7.63 µM

SMILES: CN1CCC(c2c(O)cc(O)c3c(=O)cc(-c4ccccc4Cl)oc23)C1CO (centres unmarked) [Example P276-00, reference compound]
- IC50 [1]: 0.79 µM

SMILES: CN1CC[C@H](c2c(O)cc(O)c3c(=O)cc(-c4ccccc4Cl)oc23)[C@H](O)C1 [Flavopiridol, reference compound]
- GI50 [4]: 0.048 µM

SMILES: O=c1cc(-c2ccccc2)oc2c(CN3CCN(CCO)CC3)c(O)c(O)c(O)c12 [Hydroxyethylpiperazine Baicalein, 5,6,7-trihydroxy-8-((4-(2-hydroxyethyl)piperazin-1-yl)methyl)-2-phenyl-4H-chromen-4-one]
- IC50 [1]: 0.28 µM
- fraction unbound [7]: 0.04
- solubility [8]: 607 µM (≈ 250 µg/mL)
- PC-3 TGI [2]: 15.4 µM
- GI50 [2]: 6.2 µM
- IC50 [2]: 11.6 µM
- LC50 [2]: 36.6 µM
- BGC-823 TGI [3]: 15.4 µM
- GI50 [3]: 6.1 µM
- IC50 [3]: 19.3 µM
- CC50 [3]: 51 µM
- MCF-7 TGI [9]: 15.4 µM
- GI50 [9]: 6 µM
- IC50 [9]: 20.4 µM
- CC50 [9]: 32.6 µM
- inhibition at 10 µM [10]: 46.2%
- Blood drug concentration [11]: 31.6 µM
- CC50 [4]: 42.1 µM
- GI50 [4]: 13.1 µM
- half-life [5]: 3.75 h

SMILES: COc1c(O)c(CN2CCN(CCO)CC2)c(O)c2c(=O)cc(-c3ccccc3)oc12 [Hydroxyethylpiperazine Wogonin, 6-((4-(2-hydroxyethyl)piperazin-1-yl)methyl)-5,7-dihydroxy-8-methoxy-2-phenyl-4H-chromen-4-one]
- IC50 [1]: 0.32 µM
- solubility [8]: 9390 µM (≈ 4000 µg/mL)
- inhibition at 10 µM [12]: 55%
- Blood drug concentration [11]: 94.0 µM
- CC50 [4]: 43.1 µM
- GI50 [4]: 11.1 µM
- half-life [5]: 4 h

SMILES: O=c1cc(-c2ccccc2)oc2c(CN3CCC(O)C3)c(O)c(O)c(O)c12 (centres unmarked) [Hydroxylpyrrolidine Baicalein, 5,6,7-trihydroxy-8-((3-hydroxypyrrolidin-1-yl)methyl)-2-phenyl-4H-chromen-4-one]
- IC50 [1]: 0.29 µM

SMILES: O=c1cc(-c2ccccc2)oc2c(CN3CCC(O)CC3)c(O)c(O)c(O)c12 [Hydroxypiperidin Baicalein, 5,6,7-trihydroxy-8-((4-hydroxypiperidin-1-yl)methyl)-2-phenyl-4H-chromen-4-one]
- IC50 [1]: 0.3 µM
- fraction unbound [7]: 0.09
- solubility [8]: 377 µM (≈ 145 µg/mL)
- PC-3 TGI [2]: 16.4 µM
- GI50 [2]: 6 µM
- IC50 [2]: 18.1 µM
- LC50 [2]: 41 µM
- BGC-823 TGI [3]: 16.4 µM
- GI50 [3]: 5.7 µM
- IC50 [3]: 18.6 µM
- CC50 [3]: 53.1 µM
- MCF-7 TGI [9]: 16.4 µM
- GI50 [9]: 6 µM
- IC50 [9]: 20.1 µM
- CC50 [9]: 31 µM
- inhibition at 10 µM [10]: 40.6%
- inhibition at 10 µM [12]: 46.2%
- Blood drug concentration [11]: 28.7 µM
- CC50 [4]: 40.1 µM
- GI50 [4]: 10.2 µM
- half-life [5]: 4.23 h

SMILES: COc1c(O)c(CN2CCC(O)CC2)c(O)c2c(=O)cc(-c3ccccc3)oc12 [Hydroxypiperidine Wogonin, 5,7-dihydroxy-6-((4-hydroxypiperidin-1-yl)methyl)-8-methoxy-2-phenyl-4H-chromen-4-one]
- IC50 [1]: 6.91 µM

SMILES: CN1CCN(Cc2c(O)c(O)c(O)c3c(=O)cc(-c4ccccc4)oc23)CC1 [Methylpiperazine Baicalein, 5,6,7-trihydroxy-8-((4-methylpiperazin-1-yl)methyl)-2-phenyl-4H-chromen-4-one]
- IC50 [1]: 0.29 µM
- fraction unbound [7]: 0.02
- solubility [8]: 6.02 µM (≈ 2.3 µg/mL)
- IC50 ([13]; 24 h): 12.8 ± 0.2 µM
- IC50 ([13]; 48 h): 8.2 ± 0.15 µM
- IC50 ([13]; 72 h): 6.7 ± 0.24 µM
- IC50 ([14]; MCF7, 24 h): 13.7 ± 0.21 µM
- IC50 ([14]; MCF7, 48 h): 10.6 ± 0.17 µM
- IC50 ([14]; MCF7, 72 h): 7.4 ± 0.25 µM
- IC50 ([15]; BGC-823, 24 h): 9.6 ± 0.21 µM
- IC50 ([15]; BGC-823, 48 h): 7.2 ± 0.23 µM
- IC50 ([15]; BGC-823, 72 h): 6.5 ± 0.19 µM
- early apoptosis [16]: 67.3%
- late apoptosis and cellular necrosis [16]: 27.1%
- early apoptosis [17]: 72.3%
- late apoptosis and cellular necrosis [17]: 23.1%
- early apoptosis [18]: 69.2%
- late apoptosis and cellular necrosis [18]: 22.2%
- PC-3 TGI [2]: 19.8 µM
- GI50 [2]: 8.2 µM
- IC50 [2]: 21.1 µM
- LC50 [2]: 38.8 µM
- BGC-823 TGI [3]: 19.8 µM
- GI50 [3]: 6.4 µM
- IC50 [3]: 23.1 µM
- CC50 [3]: 62.7 µM
- MCF-7 TGI [9]: 16.4 µM
- GI50 [9]: 6.4 µM
- IC50 [9]: 19.3 µM
- CC50 [9]: 31.3 µM
- inhibition at 10 µM [10]: 50%
- tissue distribution ([19]; LC-DAD-MS): rapidly distributed to various tissues
- fraction unbound ([19]; rabbit, plasma, dose-independent manner, read-out: bound to plasma (converted)): 0.02
- CC50 [4]: 37.2 µM
- GI50 [4]: 10.9 µM

SMILES: COc1c(O)c(CN2CCN(C)CC2)c(O)c2c(=O)cc(-c3ccccc3)oc12 [Methylpiperazine Wogonin, 6-((4-methylpiperazin-1-yl)methyl)-5,7-dihydroxy-8-methoxy-2-phenyl-4H-chromen-4-one]
- IC50 [1]: > 25 µM

SMILES: O=c1cc(-c2ccccc2)oc2c(CN3CCOCC3)c(O)c(O)c(O)c12 [Morpholine Baicalein]
- IC50 [1]: 0.3 µM
- CC50 [4]: 48.9 µM
- GI50 [4]: 10.1 µM

SMILES: COc1c(O)c(CN2CCOCC2)c(O)c2c(=O)cc(-c3ccccc3)oc12 [Morpholine Wogonin, 5,7-dihydroxy-8-methoxy-6-(morpholinomethyl)-2-phenyl-4H-chromen-4-one]
- IC50 [1]: > 25 µM

SMILES: O=c1cc(-c2ccccc2)oc2c(CN3CCNCC3)c(O)c(O)c(O)c12 [Piperazine Baicalein]
- IC50 [1]: 0.28 µM
- solubility [8]: 166 µM (≈ 61.2 µg/mL)
- CC50 [4]: 53.1 µM
- GI50 [4]: 13.8 µM

SMILES: COc1c(O)c(CN2CCNCC2)c(O)c2c(=O)cc(-c3ccccc3)oc12 [Piperazine Wogonin, 5,7-dihydroxy-8-methoxy-2-phenyl-6-(piperazin-1-ylmethyl)-4H-chromen-4-one]
- IC50 [1]: 6.62 µM

SMILES: O=c1cc(-c2ccccc2)oc2c(CN3CCCCC3)c(O)c(O)c(O)c12 [Piperidine Baicalein]
- CC50 [4]: 37.2 µM
- GI50 [4]: 10.5 µM

SMILES: COc1c(O)c(CN2CCCCC2)c(O)c2c(=O)cc(-c3ccccc3)oc12 [Piperidine Wogonin, 5,7-dihydroxy-8-methoxy-2-phenyl-6-(piperidin-1-ylmethyl)-4H-chromen-4-one]
- IC50 [1]: 10.5 µM

SMILES: O=c1cc(-c2ccccc2)oc2c(CN3CCCC3)c(O)c(O)c(O)c12 [Pyrrolidine Baicalein]
- GI50 [4]: 10.3 µM

SMILES: COc1c(O)c(CN2CCCC2)c(O)c2c(=O)cc(-c3ccccc3)oc12 [Pyrrolidine Wogonin, 5,7-dihydroxy-8-methoxy-2-phenyl-6-(pyrrolidin-1-ylmethyl)-4H-chromen-4-one]
- IC50 [1]: 17.2 µM

SMILES: O=c1cc(-c2ccccc2)oc2c(CN3CCSCC3)c(O)c(O)c(O)c12 [Sulfurmorpholine Baicalein]
- CC50 [4]: 84.3 µM
- GI50 [4]: 14.2 µM

SMILES: COc1c(O)c(CN2CCSCC2)c(O)c2c(=O)cc(-c3ccccc3)oc12 [Sulfurmorpholine Wogonin, 5,7-dihydroxy-8-methoxy-2-phenyl-6-(thiomorpholinomethyl)-4H-chromen-4-one]
- IC50 [1]: 3.17 µM

SMILES: COc1c(O)cc(O)c2c(=O)cc(-c3ccccc3)oc12 [Wogonin, reference compound]
- IC50 [1]: 3.5 µM
